Assay results: US8729122B2, “Pharmaceutical and nutraceutical compositions of abscisic acid” (Valent BioSciences Corporation, priority 2010, dated 2014)

Test system: rats
Test: Two Generation Reproduction Toxicity Study (dietary S-ABA)
Format: in vivo
Conditions: for SPLEEN WEIGHT, % DIFFERENCE: versus 0 PPM
Method: Two Generation Reproduction Toxicity Study
This study was conducted to determine the potential adverse effects of the test substance on reproduction in a 2-generation study. This included determining the effects of the test substance on male and female reproductive processes, including gonadal function, estrous cyclicity, mating behavior, conception, gestation, parturition, lactation, weaning, and on growth and development of the offspring. A minimum of 1 litter was produced in each generation.
Three groups of male and female were offered S-ABA, continuously in the diet for at least 70 consecutive days prior to mating. Target tests substance concentrations were 10,000, 15,000, and 20,000 ppm for the F0 and F1 generations. A concurrent control group of 30 rats/sex was offered the basal diet continuously throughout the study. F0 animals were approximately 7 weeks of age at the initiation of test diet administration. The test diet was administered to the offspring selected to become the F1 generation following weaning. The F0 and F1 males continued to receive the test substance throughout mating and continuing through the day prior to euthanasia. The F0 and F1 females continued to receive the test substance throughout mating, gestation, and lactation, and through the day of euthanasia. For both generations (F1 and F2), 8 pups per litter (4 per sex, when possible) were selected to reduce the variability among the litters. Offspring (30/sex/group, if possible) from the pairing of the F0 animals were selected to constitute the F1 generation.
All animals were observed twice daily for appearance and behavior. Clinical observations, body weights, and food consumption were recorded at appropriate intervals for males throughout the study and for females prior to mating and during gestation and lactation. All F0 and F1 females were allowed to deliver and rear their pups until weaning on lactation day 21. Clinical observations, body weights, and sexes for F1 and F2 pups were recorded at appropriate intervals. Nonselected F1 pups and all surviving F2 pups were necropsied. Selected organs were weighed from 1 pup/sex/litter from F1 and F2 pups that were necropsied. Each surviving F0 and F1 parental animal received a complete detailed gross necropsy following the completion of weaning of the F1 and F2 pups, respectively; selected organs were weighed. Spermatogenic endpoints were recorded for all F0 and F1 males, and ovarian primordial follicle counts were recorded for all F0 and F1 females in the control and high-exposure groups and all F0 and F1 females suspected of reduced fertility. Designated tissues from all F0 and F1 parental animals were examined microscopically.

[1] = second generation pups, 10,000 PPM
[2] = second generation pups, 15,000 PPM
[3] = second generation pups, 20,000 PPM

Structure (SMILES): CC1=CC(=O)CC(C)(C)[C@@]1(O)/C=C/C(C)=C\C(=O)O [S-ABA, (S)-(+)-abscisic acid]
- POSTNATAL SURVIVAL, POSTNATAL DAY 7-14, mean (15,000 ppm): 98.7 % PER LITTER
- POSTNATAL SURVIVAL, POSTNATAL DAY 14-21, mean (15,000 ppm): 100.0 % PER LITTER
- OFFSPRING WEIGHT, mean (15,000 ppm, female, postnatal day 1): 6.6 grams
- OFFSPRING WEIGHT, mean (15,000 ppm, female, postnatal day 4): 8.8 grams
- OFFSPRING WEIGHT, mean (15,000 ppm, female, postnatal day 7): 14.0 grams
- OFFSPRING WEIGHT, mean (15,000 ppm, female, postnatal day 14): 29.8 grams
- OFFSPRING WEIGHT, mean (15,000 ppm, female, postnatal day 21): 45.8 grams
- OFFSPRING WEIGHT, mean (15,000 ppm, male, postnatal day 1): 6.9 grams
- OFFSPRING WEIGHT, mean (15,000 ppm, male, postnatal day 4): 9.3 grams
- OFFSPRING WEIGHT, mean (15,000 ppm, male, postnatal day 7): 14.7 grams
- OFFSPRING WEIGHT, mean (15,000 ppm, male, postnatal day 14): 30.8 grams
- OFFSPRING WEIGHT, mean (15,000 ppm, male, postnatal day 21): 47.8 grams
- SPERM PRODUCTION RATE, mean (20,000 PPM): 10.5 MILLIONS/GRAM/DAY
- Mean Live Offspring Born (per litter) (20,000 ppm): 12.3
- Offspring Born (20,000 ppm): 327
- Offspring FOUND DEAD (20,000 ppm): 11
- POSTNATAL SURVIVAL, BIRTH-4 (PRE-SELECT), mean (20,000 ppm): 96.8 % PER LITTER
- POSTNATAL SURVIVAL, POSTNATAL DAY 0 (RELATIVE TO # BORN), mean (20,000 ppm): 98.5 % PER LITTER
- POSTNATAL SURVIVAL, POSTNATAL DAY 0-1, mean (20,000 ppm): 99.7 % PER LITTER
- POSTNATAL SURVIVAL, POSTNATAL DAY 1-4 (PRE-SELECTION), mean (20,000 ppm): 98.5 % PER LITTER
- POSTNATAL SURVIVAL, POSTNATAL DAY 4 (POST-SELECT)-21, mean (20,000 ppm): 98.0 % PER LITTER
- POSTNATAL SURVIVAL, POSTNATAL DAY 4 (POST-SELECTION)-7, mean (20,000 ppm): 98.5 % PER LITTER
- POSTNATAL SURVIVAL, POSTNATAL DAY 7-14, mean (20,000 ppm): 99.5 % PER LITTER
- POSTNATAL SURVIVAL, POSTNATAL DAY 14-21, mean (20,000 ppm): 100.0 % PER LITTER
- OFFSPRING WEIGHT, mean (20,000 ppm, female, postnatal day 1): 6.6 grams
- OFFSPRING WEIGHT, mean (20,000 ppm, female, postnatal day 4): 8.8 grams
- OFFSPRING WEIGHT, mean (20,000 ppm, female, postnatal day 7): 14.5 grams
- OFFSPRING WEIGHT, mean (20,000 ppm, female, postnatal day 14): 30.5 grams
- OFFSPRING WEIGHT, mean (20,000 ppm, female, postnatal day 21): 46.6 grams
- OFFSPRING WEIGHT, mean (20,000 ppm, male, postnatal day 1): 7.0 grams
- OFFSPRING WEIGHT, mean (20,000 ppm, male, postnatal day 4): 9.3 grams
- OFFSPRING WEIGHT, mean (20,000 ppm, male, postnatal day 7): 15.1 grams
- OFFSPRING WEIGHT, mean (20,000 ppm, male, postnatal day 14): 31.2 grams
- OFFSPRING WEIGHT, mean (20,000 ppm, male, postnatal day 21): 48.1 grams
- OVARIAN PRIMORDIAL FOLLICLE COUNTS, mean (females, 10,000 PPM): 257.5
- OVARIAN PRIMORDIAL FOLLICLE COUNTS, mean (females, 15,000 PPM): 214.0
- OVARIAN PRIMORDIAL FOLLICLE COUNTS, mean (females, 20,000 PPM): 270.3
- PROSTATE WEIGHT, ORGAN WEIGHT, mean (male rats, 10,000 ppm in diet): 1.08 GRAMS
- PROSTATE WEIGHT, ORGAN WEIGHT, mean (male rats, 15,000 ppm in diet): 1.13 GRAMS
- PROSTATE WEIGHT, ORGAN WEIGHT, mean (male rats, 20,000 ppm in diet): 1.09 GRAMS
- SPLEEN WEIGHT, mean (males, 10,000 PPM): 0.98 GRAMS
- SPLEEN WEIGHT, % DIFFERENCE (males, 10,000 PPM): −2.0%
- SPLEEN WEIGHT, mean (males, 15,000 PPM): 0.97 GRAMS
- SPLEEN WEIGHT, % DIFFERENCE (males, 15,000 PPM): −3.0%
- SPLEEN WEIGHT, mean (males, 20,000 PPM): 0.92 GRAMS
- SPLEEN WEIGHT, % DIFFERENCE (males, 20,000 PPM): −8.9%
- impact of prostate weight reduction on sperm production (rats, two-generation study): no impact on sperm production
- SPLEEN WEIGHT, mean [1]: 0.1989 GRAMS
- SPLEEN WEIGHT, % DIFFERENCE [1]: −14.8%
- SPLEEN WEIGHT, mean [2]: 0.1918 GRAMS
- SPLEEN WEIGHT, % DIFFERENCE [2]: −17.8%
- SPLEEN WEIGHT, mean [3]: 0.1979 GRAMS
- SPLEEN WEIGHT, % DIFFERENCE [3]: −15.2%
